Experimental data from patent US8618159B2, “Substituted N-phenyl-bipyrrolidine carboxamides and therapeutic use thereof” (Sanofi, priority 2007, dated 2013).
Counter-ions that a name gives are not always drawn. Like-named read-outs stand apart in the source and are kept apart here.

Columns and labels:
[1] = biological target: T1, rhesus (Macacca Mulatta) H3 receptor (Macaca mulatta, UniProt Q865E1); assay: Rhesus H3 radioligand binding assay ([3H]-Methylhistamine displacement, WGA SPA beads); parameters: species or system rhesus monkey (Macacca Mulatta); details: read-out: Affinity: ki in Rhesus H3 membrane
T1 construct: pcDNA5/FRT/TO (Invitrogen) containing the rhesus monkey (Macacca Mulatta) 445 amino acid H3 receptor
T1 sequence (Q865E1 1-445): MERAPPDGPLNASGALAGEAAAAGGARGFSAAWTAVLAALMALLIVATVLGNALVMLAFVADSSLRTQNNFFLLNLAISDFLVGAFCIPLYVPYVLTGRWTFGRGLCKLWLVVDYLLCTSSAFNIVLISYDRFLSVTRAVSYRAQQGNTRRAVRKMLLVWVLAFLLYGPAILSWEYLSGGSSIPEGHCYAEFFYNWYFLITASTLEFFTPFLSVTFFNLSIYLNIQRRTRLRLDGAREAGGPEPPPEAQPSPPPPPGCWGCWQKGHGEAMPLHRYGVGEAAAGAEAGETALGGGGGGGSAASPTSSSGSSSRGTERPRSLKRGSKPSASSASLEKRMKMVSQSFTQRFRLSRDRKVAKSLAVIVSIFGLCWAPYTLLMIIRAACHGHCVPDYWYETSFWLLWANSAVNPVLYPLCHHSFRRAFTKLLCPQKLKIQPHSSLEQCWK
Procedure: (§1) (Genbank #AY231164). Stably transfected cultures were amplified in tissue culture flasks by standard tissue culture methods and induced to express rhesus H3 by exposure to 500 ng/ml tetracycline (Cellgro) for 24 hours. After induction, cells were dissociated from flasks utilizing Cell Stripper (Cellgro). Cells were centrifuged (1K×g, 5 min) and pellet frozen in an ethanol-dry ice bath to disrupt cell membranes. Frozen cell pellet was re-suspended in 5 mM HEPES (pH 7.4, Invitrogen) at 10 ml/1000 cm2 of harvested cells. The cell suspension was drawn through an 18 gauge needle (2-3×) followed by a 23 gauge needle (2-3×) to further disrupt cell membranes. The cell suspension was centrifuged (40K×g, 30 min). Cell membrane pellet was re-suspended in 5 mM HEPES (pH 7.4, Invitrogen) at a final protein concentration of 10 mg/ml. Rhesus H3 membranes were stored under liquid nitrogen prior to use in [3H]-Methylhistamine and GTPγS radioligand binding assays.
Rhesus H3 radioligand binding assay was performed using rhesus H3 receptor membranes (prepared as described above), [3H]-Methylhistamine (Perkin Elmer) and WGA SPA beads (wheat germ agglutinin scintillation proximity assay) beads (Amersham). The assay was performed in 96-well Opti-Plates (Packard). Each reaction contained 50 μl rhesus H3 membranes (20-30 μg total protein), 50 μl WGA SPA beads (0.1 μg) and 50 μl of 83 Ci/mmol [^3H]-Methylhistamine (final concentration 2 nM) and 50 μl of tested compound. The compounds of this invention and/or vehicle were diluted with binding buffer from 10 mM DMSO stocks. Assay plates were sealed with TopSeal (Perkin Elmer) and mixed on shaker (25° C., 1 hour). Assay plates were read on TopCount scintillation counter (Packard). Results were analyzed by Hill transformation and Ki values were determined by Cheng-Prusoff equation.

rhesus H3 = assay: GTPγS radioligand binding assay, inhibition of rhesus H3 constitutive functional activity in cell membranes; format: biochemical, rhesus monkey (Macacca Mulatta); details: Table 1; relative to basal level
Procedure: as §1, with “Rhesus H3 membranes were prepared from the Flp-In T-REx 293 Cell Line (Invitrogen) stably transfected with pcDNA5/FRT/TO (Invitrogen) containing the rhesus monkey (Macacca Mulatta) 445 amino acid H3 receptor. (Genbank” for “(Genbank”

[2] = Table 2, stereoisomer comparison, procedure of Example 148
[3] = Table 1, [3H]-Methylhistamine 2 nM, Cheng-Prusoff

Structure (SMILES)	Ki [1, 2] [nM]	Ki [1, 3] [nM]	Inverse Agonism: % inhibition of Basal GTPγS binding in Rhesus H3 (rhesus H3) [%]
Cc1cc(N2CC[C@@H](N3CCC[C@@H]3C)C2)ccc1NC(=O)c1cc(F)ccc1C [Example 3, 5-Fluoro-2-methyl-N-[2-methyl-4-(2(2S)-methyl-[1,3′(3′R)]bipyrrolidinyl-1′-yl)-phenyl]-benzamide]	7.3		
Cc1cc(N2CC[C@H](N3CCC[C@H]3C)C2)ccc1NC(=O)c1cc(F)ccc1C [Example 5, 5-Fluoro-2-methyl-N-[2-methyl-4-(2(2R)-methyl-[1,3′(3′S)]bipyrrolidinyl-1′-yl)-phenyl]-benzamide]	121		
Cc1cc(N2CCC(N3CCCC3C)C2)ccc1NC(=O)c1ccc(F)cc1 (stereo not drawn) [Example 7, 4-Fluoro-N-[2-methyl-4-(2-methyl-[1,3′]bipyrrolidinyl-1′-yl)-phenyl]-benzamide]		2.06	−31
Cc1cc(N2CC[C@@H](N3CCC[C@@H]3C)C2)ccc1NC(=O)c1cc(F)ccc1C [Example 11, 5-Fluoro-2-methyl-N-[2-methyl-4-(2-(2S)-methyl-[1,3′(3′S)]bipyrrolidinyl-1′-yl)-phenyl]-benzamide]	2.5		
Cc1cc(N2CC[C@@H](N3CCC[C@H]3C)C2)ccc1NC(=O)c1cc(F)ccc1C [Example 12, 5-Fluoro-2-methyl-N-[2-methyl-4-(2-(R)-methyl-[1,3′(R)]bipyrrolidinyl-1′-yl)-phenyl]-benzamide hydrochloride]	147		
Cc1cc(N2CC[C@H](N3CCC[C@@H]3C)C2)ccc1NC(=O)c1ccc2[nH]ccc2c1 [Example 52, 1H-Indole-5-carboxylic acid [2-methyl-4-(2(S)-methyl-[1,3′(5)]-bipyrrolidinyl-1′-yl)-phenyl]-amide trifluoroacetate]		0.77	−17
Cc1cc(N2CC[C@H](N3CCC[C@@H]3C)C2)ccc1NC(=O)c1ccc2ccoc2c1 [Example 73, Benzofuran-6-carboxylic acid [2-methyl-4-(2(S)-methyl-[1,3′(S)]bipyrrolidinyl-1′-yl)-phenyl]-amide trifluoroacetate]		0.78	−15
Cc1cccc(C(=O)Nc2ccc(N3CC[C@H](N4CCC[C@@H]4C)C3)cc2C)n1 [Example 86, 6-Methyl-pyridine-2-carboxylic acid [2-methyl-4-(2(S)-methyl-[1,3′(S)]bipyrrolidinyl-1′-yl)-phenyl]-amide trifluoroacetate]		1.42	−18
